Source: patent US10933063B2 (priority 2017, dated 2021)

Biological target: BTK (Homo sapiens (Human), UniProt Q06187)
Assay: biochemical
Method: Btk kinase activity was determined using a homogenous time resolved fluorescence (HTRF) methodology. Measurements were performed in a reaction volume of 15 μL using 384-well assay plates. Kinase enzyme, inhibitor, ATP and 1 μM peptide substrate were incubated in a reaction buffer compose of Hepes50 mM (pH7.0), NaN3 0.02%, BSA 0.01%, Orthocanadate 0.1 mM. […] For each compound, enzyme activity as measured at various concentrations of compound, Negative control reactions were performed in the absence of inhibitor in two replicates and eight no enzyme controls were used to determine baseline fluorescence levels.

BTK, sequence (Q06187 whole entry, looked up, species assumed): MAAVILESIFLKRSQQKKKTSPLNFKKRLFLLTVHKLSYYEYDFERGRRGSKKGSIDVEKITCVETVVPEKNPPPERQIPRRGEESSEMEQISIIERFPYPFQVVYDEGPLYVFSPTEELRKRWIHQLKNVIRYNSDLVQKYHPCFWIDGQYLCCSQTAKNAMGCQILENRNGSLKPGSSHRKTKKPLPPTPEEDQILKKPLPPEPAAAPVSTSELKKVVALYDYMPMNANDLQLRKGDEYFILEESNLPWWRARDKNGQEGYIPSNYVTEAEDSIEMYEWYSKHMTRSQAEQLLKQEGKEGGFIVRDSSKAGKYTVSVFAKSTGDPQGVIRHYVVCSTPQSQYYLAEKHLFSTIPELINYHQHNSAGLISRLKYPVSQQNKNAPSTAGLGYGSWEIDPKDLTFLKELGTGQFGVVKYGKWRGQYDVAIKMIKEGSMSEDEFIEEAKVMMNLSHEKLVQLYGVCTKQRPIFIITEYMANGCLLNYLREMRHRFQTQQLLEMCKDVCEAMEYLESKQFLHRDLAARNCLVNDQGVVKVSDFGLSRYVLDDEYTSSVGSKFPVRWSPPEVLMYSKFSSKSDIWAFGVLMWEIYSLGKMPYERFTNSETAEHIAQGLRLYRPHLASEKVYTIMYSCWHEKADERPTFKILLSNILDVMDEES

Row | Structure (SMILES) | IC50 [µM]
1 | CC#CC(=O)N1CC[C@@H](c2nc(-c3ccc(Oc4cccc(OC)c4F)cc3)c3c(CCC)nccn23)C1 [Example 110, (R)-1-(3-(1-(4-(2-fluoro-3-methoxyphenoxy)phenyl)-8-propylimidazo[1,5-a]pyrazin-3-yl)pyrrolidin-1-yl)but-2-yn-1-one] | 1 to 10
2 | CC#CC(=O)N1CC[C@@H](c2nc(-c3ccc(Oc4cccc(OC)c4F)cc3)c3c(C)ncc(C)n23)C1 [Example 75, (R)-1-(3-(1-(4-(2-fluoro-3-methoxyphenoxy)phenyl)-5,8-dimethylimidazo[1,5-a]pyrazin-3-yl)pyrrolidin-1-yl)but-2-yn-1-one] | 0.01 to 0.1
3 | CC#CN1CCC[C@H]1c1nc(-c2ccc(C(=O)Nc3cc(C(F)(F)F)ccn3)cc2)c2c(CO)nccn12 [Example 210, (S)-4-(8-(hydroxymethyl)-3-(1-(prop-1-yn-1-yl)pyrrolidin-2-yl)imidazo [1,5-a]pyrazin-1-yl)-N-(4-(trifluoromethyl)pyridin-2-yl)benzamide] | 0.1 to 1
4 | C=CC(=O)N1CCC[C@@H](c2nc(-c3ccc(Oc4cccc(OC)c4F)cc3)c3cncc(C)n23)C1 [Example 70, (R)-1-(3-(1-(4-(2-fluoro-3-methoxyphenoxy)phenyl)-5-methylimidazo[1,5-a]pyrazin-3-yl)piperidin-1-yl)prop-2-en-1-one] | 0.01 to 0.1
5 | C=CC(=O)N1CC[C@@H](c2nc(-c3ccc(Oc4cccc(OC)c4F)cc3)c3cncc(OC(C)C)n23)C1 [Example 114, (R)-1-(3-(1-(4-(2-fluoro-3-methoxyphenoxy)phenyl)-5-isopropoxyimidazo[1,5-a]pyrazin-3-yl)pyrrolidin-1-yl)prop-2-en-1-one] | 0.01 to 0.1
6 | C=CC(=O)N1CC[C@@H](c2nc(-c3ccc(C(=O)Nc4cc(C(F)(F)F)ccn4)cc3)c3cnccn23)C1 [Example 195, (R)-4-(3-(1-acryloylpyrrolidin-3-yl)imidazo[1,5-a]pyrazin-1-yl)-N-(4-(trifluoromethyl)pyridin-2-yl)benzamide] | 0.01 to 0.1
7 | CC#CC(=O)N1CCCC[C@H]1c1nc(-c2ccc(COc3cccc(F)c3)cc2)c2c(C)nccn12 [Example 157, (S)-1-(2-(1-(4-((3-fluorophenoxy)methyl)phenyl)-8-methylimidazo[1,5-a]pyrazin-3-yl)piperidin-1-yl)but-2-yn-1-one] | 0.1 to 1
8 | C=CC(=O)N1CCCC[C@H]1c1nc(-c2ccc(C(=O)Nc3cc(C(F)(F)F)ccn3)cc2)c2c(C(F)(F)F)nccn12 [Example 201, (S)-4-(3-(1-acryloylpiperidin-2-yl)-8-(trifluoromethyl)imidazo[1,5-a]pyrazin-1-yl)-N-(4-(trifluoromethyl)pyridin-2-yl)benzamide] | 1 to 10
9 | CC#CC(=O)N1CCC[C@H]1c1nc(-c2ccc(OCc3cccc(F)c3F)cc2)c2cnccn12 [Example 127, (S)-1-(2-(1-(4-((2,3-difluorobenzyl)oxy)phenyl)imidazo[1,5-a]pyrazin-3-yl)pyrrolidin-1-yl)but-2-yn-1-one] | 1 to 10
10 | CC#CC(=O)N1CCC[C@H]1c1nc(-c2ccc(COc3cccc(F)c3F)cc2)c2cnccn12 [Example 130, (S)-1-(2-(1-(4-((2,3-difluorophenoxy)methyl)phenyl)imidazo[1,5-a]pyrazin-3-yl)pyrrolidin-1-yl)but-2-yn-1-one] | 1 to 10
11 | CC#CC(=O)N1CCC[C@H]1c1nc(-c2ccc(C(=O)Nc3cc(C(F)(F)F)ccn3)cc2F)c2c(CO)nccn12 [Example 208, (S)-4-(3-(1-(but-2-ynoyl)pyrrolidin-2-yl)-8-(hydroxymethyl)imidazo [1,5-a]pyrazin-1-yl)-3-fluoro-N-(4-(trifluoromethyl)pyridin-2-yl)benzamide] | 0.1 to 1
12 | C=CC(=O)N1CCCC[C@H]1c1nc(-c2ccc(C(=O)Nc3ccccn3)cc2)c2c(C)ncc(C)n12 [Example 188, (S)-4-(3-(1-acryloylpiperidin-2-yl)-5,8-dimethylimidazo [1,5-a]pyrazin-1-yl)-N-(pyridin-2-yl)benzamide] | 0.01 to 0.1
13 | CC#CC(=O)N1CC[C@@H](c2nc(-c3ccc(Oc4cccc(OC)c4F)cc3)c3c(CF)nccn23)C1 [Example 120, (R)-1-(3-(1-(4-(2-fluoro-3-methoxyphenoxy)phenyl)-8-(fluoromethyl)imidazo[1,5-a]pyrazin-3-yl)pyrrolidin-1-yl)but-2-yn-1-one] | 0.01 to 0.1
14 | C=CC(=O)N1CCC[C@H]1c1nc(-c2ccc(C(=O)Nc3ccccn3)cc2)c2cncc(C)n12 [Example 172, (S)-4-(3-(1-aeryloylpyrrolidin-2-yl)-5-methylimidazo [1,5-a]pyrazin-l-yl)-N-(pyridin-2-yl)benzamide] | 0.01 to 0.1
15 | C=CC(=O)N1CCCC[C@H]1c1nc(-c2ccc(Oc3cccc(F)c3)cc2)c2cnccn12 [Example 45, (S)-1-(2-(1-(4-(3-fluorophenoxy)phenyl)imidazo[1,5-a]pyrazin-3-yl)piperidin-1-yl)prop-2-en-1-one] | 0.01 to 0.1
16 | COc1cccc(Oc2ccc(-c3nc([C@@H]4CCCN(C(=O)C(N)=O)C4)n4ccncc34)cc2)c1F [Example 3, (R)-2-(3-(1-(4-(2-fluoro-3-methoxyphenoxy)phenyl)imidazo[1,5-a]pyrazin-3-yl)piperidin-1-yl)-2-oxoacetamide] | 1 to 10
17 | CC#CC(=O)N1CCCC[C@H]1c1nc(-c2ccc(OCc3cccc(F)c3F)cc2)c2c(C)nccn12 [Example 155, (S)-1-(2-(1-(4-((2,3-difluorobenzyl)oxy)phenyl)-8-methylimidazo[1,5-a]pyrazin-3-yl)piperidin-1-yl)but-2-yn-1-one] | 0.1 to 1
18 | C=CC(=O)N1CCC[C@H]1c1nc(-c2ccc(COc3cccc(OC)c3F)cc2)c2cnccn12 [Example 161, (S)-1-(2-(1-(4-((2-fluoro-3-methoxyphenoxy)methyl)phenyl)imidazo[1,5-a]pyrazin-3-yl)pyrrolidin-1-yl)prop-2-en-1-one] | 0.01 to 0.1
19 | C=CC(=O)N1CCC[C@H]1c1nc(-c2ccc(Oc3ccccc3OC)cc2)c2cnccn12 [Example 23, (S)-1-(2-(1-(4-(2-methoxyphenoxy)phenyl)imidazo[1,5-a]pyrazin-3-yl)pyrrolidin-1-yl)prop-2-en-1-one] | 0.01 to 0.1
20 | CC#CC(=O)N1CCC[C@H]1c1nc(-c2ccc(Oc3cccc(OC)c3F)cc2)c2cnccn12 [Example 34, (S)-1-(2-(1-(4-(2-fluoro-3-methoxyphenoxy)phenyl)imidazo[1,5-a]pyrazin-3-yl)pyrrolidin-1-yl)but-2-yn-1-one] | 0.01 to 0.1
21 | CC#CC(=O)N1CCCC[C@H]1c1nc(-c2ccc(C(=O)Nc3ccccn3)cc2)c2cncc(C)n12 [Example 187, (S)-4-(3-(1-(but-2-ynoyl)piperidin-2-yl)-5-methylimidazo[1,5-a]pyrazin-1-yl)-N-(pyridin-2-yl)benzamide] | 1 to 10
22 | CC#CC(=O)N1CCC[C@H]1c1nc(-c2ccc(Oc3ccccc3)cc2Cl)c2cnccn12 [Example 14, (S)-1-(2-(1-(2-chloro-4-phenoxyphenyl)imidazo[1,5-a]pyrazin-3-yl)pyrrolidin-1-yl)but-2-yn-1-one] | 1 to 10
23 | CC#CC(=O)N1CCC[C@H]1c1nc(-c2ccc(C(=O)Nc3ccccn3)cc2)c2cnccn12 [Example 166, (S)-4-(3-(1-(but-2-ynoyl)pyrrolidin-2-yl)imidazo[1,5-a]pyrazin-1-yl)-N-(pyridin-2-yl) benzamide] | 1 to 10
